Test results reported in patent US8815891B2, “Tricyclic derivative or pharmaceutically acceptable salts thereof, preparation method thereof, and pharmaceutical composition containing the same” (Je Il Pharmaceutical Co., Ltd., priority 2008, dated 2014).
pIC50: −log10 of the molar value. Where a name gives a salt, the structure may show the parent alone. Read-outs that look alike come from different tables or passages of the source.

Target: PARP-1 enzyme (Homo sapiens (Human), UniProt P09874)
Experiment: Poly(ADP-ribose)polymerase [PARP-1] enzyme inhibitory activity (Trevigen PARP Assay kit)
Assay type: biochemical
Conditions: read-out: PARP-1 Inhibitory activity IC50
Experimental: The activity of the compounds according to the present invention to inhibit the PARP-1 enzyme was examined using a PARP Assay kit (4671-096-K) purchased from Trevigen. The assay was performed following a modified previously reported method by Lee et al [Methods Find, Exp. Clin. Pharmacol., 27, 617-622, 2005].
Histone was coated on 384-well plate, which is a small volume PS plate (784101) of Greiner Bio-One, and left at 25° C. for 2 hours. After that, the plate was rinsed four times with PBS (7.5 mM Na2HPO4, 2.5 mM NaH2PO4, 145 mM NaCl, pH 7.4), and in order to prevent non-specific reaction, the Strep-diluent (provided from kit of Trevigen) was added and left at 25° C. for one hour. After one hour, the plate was again rinsed with PBS four times, and the compounds of the Examples in various concentrations were put into reactant containing PARP-1 enzyme (0.12 unit/well), 2×PARP cocktail (1.95 mM NAD^+, 50 uM biotinylated NAD^+, and activated DNA in 50 mM Tris pH 8.0, 25 mM MgCl2) and allowed to react at 25° C. for 30 minutes. After 30 minutes, each well was rinsed with PBS four times, and in order to measure the amount of rybosylation by the PARP enzyme, strepavidin-linked peroxidase (Strep-HRP, 1:1000 diluted) was added and allowed to react at 37° C. for 30 minutes. The plate was rinsed with PBS four times, and TACS-Sapphire substrate was put and allowed to react at 25° C. for 10 minutes so that color reaction occurred. Finally, the reaction was terminated by the addition of 0.2 N HCl. The amount of histone ribosylation formed by PARP-1 enzyme was quantified at 450 nm using Wallac EnVision™ (PerkinElmer Oy, Turku, Finland).

[1] = PARP-1 enzyme, histone ribosylation, 450 nm

Chain of PARP-1 enzyme (P09874 whole entry): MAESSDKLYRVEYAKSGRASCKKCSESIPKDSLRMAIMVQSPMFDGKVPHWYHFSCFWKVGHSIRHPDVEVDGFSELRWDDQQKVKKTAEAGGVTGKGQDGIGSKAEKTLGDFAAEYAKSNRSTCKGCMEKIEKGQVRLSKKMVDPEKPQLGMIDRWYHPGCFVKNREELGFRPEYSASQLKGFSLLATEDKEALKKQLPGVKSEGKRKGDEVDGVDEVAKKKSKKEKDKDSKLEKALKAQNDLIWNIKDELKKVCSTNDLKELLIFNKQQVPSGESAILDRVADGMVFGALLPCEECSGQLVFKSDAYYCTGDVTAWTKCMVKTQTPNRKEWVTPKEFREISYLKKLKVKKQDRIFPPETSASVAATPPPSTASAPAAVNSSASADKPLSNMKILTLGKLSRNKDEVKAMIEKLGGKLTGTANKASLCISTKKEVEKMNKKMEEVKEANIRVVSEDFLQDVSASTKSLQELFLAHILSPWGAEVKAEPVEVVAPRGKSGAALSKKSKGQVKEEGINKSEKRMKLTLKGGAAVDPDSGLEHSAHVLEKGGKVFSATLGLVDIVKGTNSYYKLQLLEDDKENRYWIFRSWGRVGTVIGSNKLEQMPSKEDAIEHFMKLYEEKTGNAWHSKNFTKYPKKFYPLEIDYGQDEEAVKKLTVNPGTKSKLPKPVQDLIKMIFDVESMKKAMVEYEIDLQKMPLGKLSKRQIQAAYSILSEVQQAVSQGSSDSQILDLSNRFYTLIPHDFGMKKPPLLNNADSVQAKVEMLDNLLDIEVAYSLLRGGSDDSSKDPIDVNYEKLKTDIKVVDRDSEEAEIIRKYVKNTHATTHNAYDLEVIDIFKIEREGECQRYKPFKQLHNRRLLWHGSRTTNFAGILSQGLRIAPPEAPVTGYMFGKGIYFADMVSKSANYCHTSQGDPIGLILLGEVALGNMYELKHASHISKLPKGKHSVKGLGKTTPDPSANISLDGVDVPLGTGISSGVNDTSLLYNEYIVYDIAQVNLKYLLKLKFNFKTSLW

pIC50 [1]	SMILES	pIC50
–	NCc1ccc2c3c(c(=O)[nH]c2c1)CCCN3 [Example 112, 8-(Aminomethyl)-1,2,3,4-tetrahydrobenzo[h][1,6]naphthyridine-5 (6H)-one dihydrochloride]	6.77
–	CN(C)CCCOc1ccc2c3c(c(=O)[nH]c2c1)CCCN3 [Example 36, 8-[3-(Dimethylamino)propoxy]-1,2,3,4-tetrahydrobenzo[h][1,6]naphthyridine-5(6H)-one dihydrochloride]	5.52
6.03	CN(C)CCN(C)Cc1ccc2c3c(c(=O)[nH]c2c1)CCCN3 [Example 54, 8-{[(2-(Dimethylaminoethyl)(methyl)amino]methyl}-1,2,3,4-tetrahydrobenzo[h][1,6]naphthyridine-5(6H)-one trihydrochloride]	–
–	CCCN1CCC(Oc2ccc3[nH]c(=O)c4c(c3c2)NCCC4)CC1 [Example 11, 9-(1-Propylpiperidine-4-yloxy)-1,2,3,4-tetrahydrobenzo[h][1,6]naphthyridine-5(6H)-one dihydrochloride]	5.99
–	COc1cc(CN(C)N2CCOCC2)cc2[nH]c(=O)c3c(c12)NCCC3 [Example 97, 10-Methoxy-8-{[methyl(morpholino)amino]methyl}-1,2,3,4-tetrahydrobenzo[h][1,6]naphthyridine-5(6H)-one trihydrochloride]	6.05
5.97	CN(C)CCc1ccc2[nH]c(=O)c3c(c2c1)NCCC3 [Example 31, 9-[2-(Dimethylamino)ethyl]-1,2,3,4-tetrahydrobenzo[h][1,6]naphthyridine-5(6H)-one dihydrochloride]	–
< 5.40	O=c1[nH]c2ccc(OCCc3ccccc3)cc2c2c1CCCN2 [Example 25, 9-Penethoxy-1,2,3,4-tetrahydrobenzo[h][1,6]naphthyridine-5(6H)-one dihydrochloride]	–
–	O=c1[nH]c2ccc(OCCN3CCOCC3)cc2c2c1CCCN2 [Example 27, 9-(2-Morpholinoethoxy)-1,2,3,4-tetrahydrobenzo[h][1,6]naphthyridine-5(6H)-one dihydrochloride]	5.58
< 5.40	CN1CCCc2c1c1cc(O)ccc1[nH]c2=O [Example 10, 1-Methyl-9-hydroxy-1,2,3,4-tetrahydrobenzo[h][1,6]naphthyridine-5(6H)-one hydrochloride]	–
–	CCN(CC)Cc1cc(OC)c2c3c(c(=O)[nH]c2c1)CCCN3 [Example 86, 8-[(Diethylamino)methyl]-10-methoxy-1,2,3,4-tetrahydrobenzo[h][1,6]naphthyridine-5(6H)-one dihydrochloride]	6.96
< 5.40	COc1ccc2c3c(c(=O)[nH]c2c1)CCCN3 [Example 1, 8-Methoxy-1,2,3,4-tetrahydrobenzo[h][1,6]naphthyridine-5(6H)-one hydrochloride]	–
–	COc1cc(CN2CCC(=O)CC2)cc2[nH]c(=O)c3c(c12)NCCC3 [Example 78, 10-Methoxy-8-[(4-oxopiperidine-1-yl)methyl]-1,2,3,4-tetrahydrobenzo[h][1,6]naphthyridine-5(6H)-one dihydrochloride]	6.96
–	CCOC(=O)CCN(C)Cc1ccc2c3c(c(=O)[nH]c2c1)CCCN3 [Example 57, Ethyl-3-{methyl[(5-oxo-1,2,3,4,5,6-hexahydrobenzo[h][1,6]naphthyridine-8-yl)methyl]amino}propanoate dihydrochloride]	6.32
–	COc1cc(CNN2CCOCC2)cc2[nH]c(=O)c3c(c12)NCCC3 [Example 96, 10-Methoxy-8-[(morpholinoamino)methyl]-1,2,3,4-tetrahydrobenzo[h][1,6]naphthyridine-5(6H)-one trihydrochloride]	6.11
–	COCCN(C)Cc1cc(OC)c2c3c(c(=O)[nH]c2c1)CCCN3 [Example 81, 10-Methoxy-8-{[(2-methoxyethyl)(methyl)amino]methyl}-1,2,3,4-tetrahydrobenzo[h][1,6]naphthyridine-5(6H)-one dihydrochloride]	6.96
–	CC(C)N(C)Cc1ccc2c3c(c(=O)[nH]c2c1)CCCN3 [Example 59, 8-{[Isopropyl(methyl)amino]methyl}-1,2,3,4-tetrahydrobenzo[h][1,6]naphthyridine-5(6H)-one dihydrochloride]	6.72
6.30	COc1ccc2[nH]c(=O)c3c(c2c1)NCCC3 [Example 3, 9-Methoxy-1,2,3,4-tetrahydrobenzo[h][1,6]naphthyridine-5(6H)-one hydrochloride]	–
–	COc1cc(CN2CCCCC2)cc2[nH]c(=O)c3c(c12)NCCC3 [Example 84, 10-Methoxy-8-(piperidine-1-ylmethyl)-1,2,3,4-tetrahydrobenzo[h][1,6]naphthyridine-5(6H)-one dihydrochloride]	6.82
–	CN(C)Cc1ccc2[nH]c(=O)c3c(c2c1)NCCC3 [Example 50, 9-[(Dimethylamino)methyl]-1,2,3,4-tetrahydrobenzo[h][1,6]naphthyridine-5(6H)-one dihydrochloride]	6.49
< 5.40	CN1CCC(Oc2ccc3[nH]c(=O)c4c(c3c2)N(C)CCC4)CC1 [Example 14, 1-Methyl-9-(1-methylpiperidine-4-yloxy)-1,2,3,4-tetrahydrobenzo[h][1,6]naphthyridine-5(6H)-one dihydrochloride]	–
–	O=c1[nH]c2cc(OCCN3CCCCC3)ccc2c2c1CCCN2 [Example 35, 8-[2-(Piperidine-1yl)ethoxy]-1,2,3,4-tetrahydrobenzo[h][1,6]naphthyridine-5(6H)-one dihydrochloride]	5.45
< 5.40	O=c1[nH]c2cc(CNCC(F)(F)F)ccc2c2c1CCCN2 [Example 62, 8-[(2,2,2-Trifuloroethylamino)methyl]-1,2,3,4-tetrahydrobenzo[h][1,6]naphthyridine-5(6H)-one dihydrochloride]	–
< 5.40	O=c1[nH]c2ccc(OCCCN3CCCCC3)cc2c2c1CCCN2 [Example 21, 9-[3-(Piperidine-1yl)propoxy]-1,2,3,4-tetrahydrobenzo[h][1,6]naphthyridine-5(6H)-one dihydrochloride]	–
–	CCN(CC)Cc1ccc2c3c(c(=O)[nH]c2c1)CCCN3C [Example 68, 8-[(Diethylamino)methyl]-1-methyl-1,2,3,4-tetrahydrobenzo[h][1,6]naphthyridine-5(6H)-one dihydrochloride]	5.92
–	CN(Cc1ccccc1)Cc1ccc2c3c(c(=O)[nH]c2c1)CCCN3 [Example 51, 8-{[Benzyl(methyl)amino]methyl}-1,2,3,4-tetrahydrobenzo[h][1,6]naphthyridine-5(6H)-one dihydrochloride]	6.03
–	COc1cc(CNCCN2CCOCC2)cc2[nH]c(=O)c3c(c12)NCCC3 [Example 107, 10-Methoxy-8-[(2-morpholinoethylamino)methyl)-1,2,3,4-tetrahydrobenzo[h][1,6]naphthyridine-5(6H)-one trihydrochloride]	7.15
–	COc1cc(CN(C)C(C)C)cc2[nH]c(=O)c3c(c12)NCCC3 [Example 93, 8-{[Isopropyl(methyl)amino]methyl}-10-methoxy-1,2,3,4-tetrahydrobenzo[h][1,6]naphthyridine-5(6H)-one dihydrochloride]	6.85
–	O=c1[nH]c2cc(CN3CCOCC3)ccc2c2c1CCCN2 [Example 49, 8-(Morpholinomethyl)-1,2,3,4-tetrahydrobenzo[h][1,6]naphthyridine-5(6H)-one dihydrochloride]	6.21
